This is an account of results in the supplement of paper PMC11451515.

Assay in all cases: AUC of viability dose-response curve (% viability x log10 dose units); higher = less sensitive
What all share (conditions): 48 h

For one assay, the system named is P12-Ichikawa. Summed up:
(§1)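 Viability of medium-adapted leukemia cells was measured by CellTiter-Glo One luminescence after 48 h at 37°C with library compounds in DMSO. Doses were 11 threefold steps from 47 μM to 0.79 nM, in 1536-well plates at 500 or 1000 cells/well. Signals were normalised per plate to DMSO and cell-free wells and fitted with a four-parameter log-logistic model on log10 dose. Area under the curve was integrated by trapezoidal rule, with curves exceeding full viability scaled and failed quality-control curves removed.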

In a further assay the test system is NOMO1. In short, it runs like this: as §1
The next assay relates to SEM cells. In short, it runs like this: as §1
The mark [1] stands for this setting: RPMI 5 mM glucose + 10% dialyzed FBS.

The structures appear in SMILES notation.

Take `CN(CCOc1ccc(CC2SC(=O)NC2=O)cc1)c1ccccn1` (stereo not drawn): the “AUC of viability dose-response curve” value came to 467 in the assay on P12-Ichikawa (HPLM + 10% dialyzed FBS); 465 in the assay with P12-Ichikawa (RPMI 5 mM glucose + 10% FBS); 462 in the assay with P12-Ichikawa (setting [1]); 442 with NOMO1 (HPLM + 10% dialyzed FBS); 474 in the assay with NOMO1 (RPMI 5 mM glucose + 10% FBS); 443 in the assay with NOMO1 (setting [1]). The “AUC of viability dose-response curve” value in the assay on SEM cells (HPLM + 10% dialyzed FBS) came out at 469; in the assay on SEM cells (RPMI 5 mM glucose + 10% FBS), 433; with SEM cells (setting [1]) it was 466.

For the compound `CCNC(=O)CCC/C=C\C[C@@H]1[C@@H](/C=C/C(O)CCc2ccccc2)[C@@H](O)C[C@@H]1O` (stereo partly drawn), the “AUC of viability dose-response curve” value in the assay on P12-Ichikawa (HPLM + 10% dialyzed FBS) amounted to 448; with P12-Ichikawa (RPMI 5 mM glucose + 10% FBS), 453; in the assay with P12-Ichikawa (setting [1]), 431; in the assay with NOMO1 (HPLM + 10% dialyzed FBS), 460; in the assay with NOMO1 (RPMI 5 mM glucose + 10% FBS), 456; in the assay on NOMO1 (setting [1]) it was 459. Besides, the results for the “AUC of viability dose-response curve” value with SEM cells (HPLM + 10% dialyzed FBS), in the assay with SEM cells (RPMI 5 mM glucose + 10% FBS) and in the assay with SEM cells (setting [1]) were 466, 473 and 461, respectively.

Turning to `CN1CCc2c(c3ccccc3n2Cc2ccc(C(=O)NO)cc2)C1`, the “AUC of viability dose-response curve” value in the assay with P12-Ichikawa (HPLM + 10% dialyzed FBS) amounted to 401; with P12-Ichikawa (RPMI 5 mM glucose + 10% FBS) it was 370; in the assay with P12-Ichikawa (setting [1]) it was 377; in the assay on NOMO1 (HPLM + 10% dialyzed FBS), 373; in the assay on NOMO1 (RPMI 5 mM glucose + 10% FBS), 358; in the assay with NOMO1 (setting [1]), 397. The results for the “AUC of viability dose-response curve” value in the assay with SEM cells (HPLM + 10% dialyzed FBS), in the assay on SEM cells (RPMI 5 mM glucose + 10% FBS) and with SEM cells (setting [1]) were 348, 364 and 310, respectively.

Consider `CO[C@H]1CCC(O[C@H]2C[C@H]([C@]3(C)CC[C@]4(C[C@H](O)[C@@H](C)[C@@H]([C@@H](C)/C=C(\C)C(=O)[C@H](C)C[C@H](C)C(=O)[O-])O4)O3)O[C@]3(O[C@@H]([C@H]4O[C@@](O)(CO)[C@H](C)C[C@@H]4C)C[C@@H]3C)[C@@H]2C)O[C@@H]1C` (stereo partly drawn), for which the “AUC of viability dose-response curve” value is 353 with P12-Ichikawa (HPLM + 10% dialyzed FBS); 366 in the assay on P12-Ichikawa (RPMI 5 mM glucose + 10% FBS); 376 in the assay with P12-Ichikawa (setting [1]); 405 in the assay on NOMO1 (HPLM + 10% dialyzed FBS); 449 with NOMO1 (RPMI 5 mM glucose + 10% FBS); 415 with NOMO1 (setting [1]). Moreover, the “AUC of viability dose-response curve” value turned out to be 368 in the assay on SEM cells (HPLM + 10% dialyzed FBS), 352 in the assay with SEM cells (RPMI 5 mM glucose + 10% FBS) and 344 in the assay with SEM cells (setting [1]).

As for `COc1cc2c(cc1OC)[C@@H]1Cc3ccc(OC)c(OC)c3CN1CC2`, the “AUC of viability dose-response curve” value was found to be 467 in the assay with P12-Ichikawa (HPLM + 10% dialyzed FBS); 444 in the assay on P12-Ichikawa (RPMI 5 mM glucose + 10% FBS); 461 in the assay with P12-Ichikawa (setting [1]); 452 in the assay on NOMO1 (HPLM + 10% dialyzed FBS); 458 with NOMO1 (RPMI 5 mM glucose + 10% FBS); 464 with NOMO1 (setting [1]). Besides, the “AUC of viability dose-response curve” value with SEM cells (HPLM + 10% dialyzed FBS) amounted to 473; in the assay on SEM cells (RPMI 5 mM glucose + 10% FBS) it was 449; in the assay on SEM cells (setting [1]), 477.

For the compound `CC(=O)N(C)C1(c2ccccc2)CCN(CCC[C@]2(c3ccc(Cl)c(Cl)c3)CCCN(C(=O)c3ccccc3)C2)CC1`, the “AUC of viability dose-response curve” value is 346 in the assay on P12-Ichikawa (HPLM + 10% dialyzed FBS); 387 in the assay on P12-Ichikawa (RPMI 5 mM glucose + 10% FBS); 366 in the assay with P12-Ichikawa (setting [1]); 294 in the assay on NOMO1 (HPLM + 10% dialyzed FBS); 344 with NOMO1 (RPMI 5 mM glucose + 10% FBS); 343 in the assay with NOMO1 (setting [1]). Besides, the “AUC of viability dose-response curve” value in the assay on SEM cells (HPLM + 10% dialyzed FBS) is 305; in the assay with SEM cells (RPMI 5 mM glucose + 10% FBS), 303; in the assay on SEM cells (setting [1]) it was 326.

Turning to `O=C(O)c1cc(O)c2c(c1)C(=O)c1cccc(O)c1C2=O`, the “AUC of viability dose-response curve” value in the assay on P12-Ichikawa (HPLM + 10% dialyzed FBS) amounted to 455; in the assay on P12-Ichikawa (RPMI 5 mM glucose + 10% FBS) it was 464; in the assay with P12-Ichikawa (setting [1]) it was 443; in the assay on NOMO1 (HPLM + 10% dialyzed FBS), 464; with NOMO1 (RPMI 5 mM glucose + 10% FBS), 445; in the assay on NOMO1 (setting [1]) it was 466. Further, the “AUC of viability dose-response curve” value with SEM cells (HPLM + 10% dialyzed FBS) stood at 451; with SEM cells (RPMI 5 mM glucose + 10% FBS), 460; with SEM cells (setting [1]), 464.

As for `C[C@]12CC[C@H]3[C@@H](CC(=C)\C4=C\C(=O)\C=C/[C@]34C)[C@@H]1CCC2=O`, the “AUC of viability dose-response curve” value with P12-Ichikawa (HPLM + 10% dialyzed FBS) was determined as 466; with P12-Ichikawa (RPMI 5 mM glucose + 10% FBS) it was 466; in the assay with P12-Ichikawa (setting [1]) it was 461; in the assay with NOMO1 (HPLM + 10% dialyzed FBS), 463; in the assay on NOMO1 (RPMI 5 mM glucose + 10% FBS), 429; with NOMO1 (setting [1]), 444. Further, the entries for the “AUC of viability dose-response curve” value in the assay on SEM cells (HPLM + 10% dialyzed FBS), in the assay with SEM cells (RPMI 5 mM glucose + 10% FBS) and in the assay on SEM cells (setting [1]) were 426, 438 and 437, respectively.

Take `Nc1n[nH]c2nnc(-c3c(-c4ccccc4)nn4ccccc34)cc12`: the “AUC of viability dose-response curve” value with P12-Ichikawa (HPLM + 10% dialyzed FBS) came out at 404; in the assay on P12-Ichikawa (RPMI 5 mM glucose + 10% FBS) it was 403; with P12-Ichikawa (setting [1]), 429; in the assay on NOMO1 (HPLM + 10% dialyzed FBS), 378; in the assay on NOMO1 (RPMI 5 mM glucose + 10% FBS), 354; with NOMO1 (setting [1]) it was 379. The “AUC of viability dose-response curve” value turned out to be 446 in the assay on SEM cells (HPLM + 10% dialyzed FBS), 449 with SEM cells (RPMI 5 mM glucose + 10% FBS) and 455 in the assay with SEM cells (setting [1]).

Take `C[C@@H]1CC[C@@]2(CC[C@]3(C)\C(=C/C[C@@H]4[C@@]5(C)CC[C@H](O)C(C)(C)[C@@H]5CC[C@@]34C)[C@@H]2[C@H]1C)C(O)=O`: the “AUC of viability dose-response curve” value with P12-Ichikawa (HPLM + 10% dialyzed FBS) turned out to be 462; in the assay with P12-Ichikawa (RPMI 5 mM glucose + 10% FBS) it was 469; in the assay on P12-Ichikawa (setting [1]), 458; in the assay with NOMO1 (HPLM + 10% dialyzed FBS), 477; with NOMO1 (RPMI 5 mM glucose + 10% FBS), 461; with NOMO1 (setting [1]), 468. The entries for the “AUC of viability dose-response curve” value with SEM cells (HPLM + 10% dialyzed FBS), in the assay on SEM cells (RPMI 5 mM glucose + 10% FBS) and with SEM cells (setting [1]) were 465, 467 and 456, respectively.

Take `O=C(/C=C/c1ccc(/C=C/C(=O)Nc2ccc(C3=NCCN3)cc2)cc1)Nc1ccc(C2=NCCN2)cc1`: the “AUC of viability dose-response curve” value with P12-Ichikawa (HPLM + 10% dialyzed FBS) is 467; with P12-Ichikawa (RPMI 5 mM glucose + 10% FBS) it was 467; in the assay on P12-Ichikawa (setting [1]), 473; in the assay on NOMO1 (HPLM + 10% dialyzed FBS) it was 456; in the assay with NOMO1 (RPMI 5 mM glucose + 10% FBS), 439; in the assay with NOMO1 (setting [1]) it was 464. In addition, the “AUC of viability dose-response curve” value with SEM cells (HPLM + 10% dialyzed FBS) was found to be 460; in the assay with SEM cells (RPMI 5 mM glucose + 10% FBS), 448; with SEM cells (setting [1]), 459.

As to `Cc1c(N)nc([C@H](CC(N)=O)NC[C@@H](N)C(N)=O)nc1C(=O)N[C@H](C(=O)N[C@@H](C)[C@H](O)[C@@H](C)C(=O)N[C@@H](C(=O)NCCc1nc(-c2nc(C(=O)NCCC[S+](C)C)cs2)cs1)[C@@H](C)O)C(O[C@H]1O[C@H](CO)[C@H](O)[C@@H](O)[C@H]1O[C@H]1O[C@H](CO)[C@@H](O)[C@H](OC(N)=O)[C@@H]1O)c1c[nH]cn1` (stereo partly drawn), the “AUC of viability dose-response curve” value came to 411 with P12-Ichikawa (HPLM + 10% dialyzed FBS); 378 in the assay with P12-Ichikawa (RPMI 5 mM glucose + 10% FBS); 424 with P12-Ichikawa (setting [1]); 394 in the assay on NOMO1 (HPLM + 10% dialyzed FBS); 416 in the assay with NOMO1 (RPMI 5 mM glucose + 10% FBS); 434 with NOMO1 (setting [1]). Moreover, the figures for the “AUC of viability dose-response curve” value with SEM cells (HPLM + 10% dialyzed FBS), with SEM cells (RPMI 5 mM glucose + 10% FBS) and with SEM cells (setting [1]) were 415, 382 and 384, respectively.
